Results taken from ChEMBL document CHEMBL1201862, “PubChem BioAssay data set” (2004).
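1) Cells in 96-well plates. 2) Compound, 48 h, 5 concentrations. 3) Linear interpolation between surrounding doses. 4) Unreached endpoint = highest concentration. At the GI50, growth is halved.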 Calls of active or inactive are those of the source. No stated cut-off is given here; in the data, active = GI50 up to about 1.1 µM and inactive = higher.

What was measured:
Experiment in all cases: growth of human tumour cells (NCI), 48 h
UACC-62 = system: UACC-62
UO-31 = system: UO-31
T47D = system: T47D
SK-MEL-2 = system: SK-MEL-2
OVCAR-8 = system: OVCAR-8
RPMI-8226 = system: RPMI-8226
NCI/ADR-RES = system: NCI/ADR-RES
SF-539 = system: SF-539
SR = system: SR
SN12C = system: SN12C
HCT-15 = system: HCT-15
SK-MEL-28 = system: SK-MEL-28
SF-295 = system: SF-295
SNB-75 = system: SNB-75
A549 = system: A549
DU-145 = system: DU-145
A498 = system: A498
NCI-H23 = system: NCI-H23
HCT-116 = system: HCT-116
MDA-MB-231 = system: MDA-MB-231
ACHN = system: ACHN
COLO 205 = system: COLO 205
EKVX = system: EKVX
OVCAR-3 = system: OVCAR-3
SK-OV-3 = system: SK-OV-3
HOP-92 = system: HOP-92
PC-3 = system: PC-3
SK-MEL-5 = system: SK-MEL-5
TK-10 = system: TK-10
OVCAR-5 = system: OVCAR-5
CAKI-1 = system: CAKI-1
MCF7 = system: MCF7
M14 = system: M14
Malme-3M = system: Malme-3M
HOP-62 = system: HOP-62
HT-29 = system: HT-29
786-0 = system: 786-0
NCI-H460 = system: NCI-H460
LOX IMVI = system: LOX IMVI
NCI-H522 = system: NCI-H522
HCC 2998 = system: HCC 2998
SW-620 = system: SW-620
MDA-MB-435 = system: MDA-MB-435
SF-268 = system: SF-268
MDA-N = system: MDA-N
KM12 = system: KM12
IGROV-1 = system: IGROV-1
MOLT-4 = system: MOLT-4
RXF 393 = system: RXF 393
OVCAR-4 = system: OVCAR-4
NCI-H226 = system: NCI-H226
SNB-19 = system: SNB-19
U-251 = system: U-251

Measured: GI50

O=C1Nc2ccccc2/C1=N/NC(=S)N1CCCCC1
active: UO-31 0.592 µM | OVCAR-8 0.317 µM | RPMI-8226 0.299 µM | NCI/ADR-RES 0.0415 µM | SF-539 0.082 µM | SR 0.675 µM | SF-295 0.256 µM | A549 0.428 µM | A498 0.356 µM | HCT-116 0.216 µM | MDA-MB-231 0.393 µM | ACHN 0.397 µM | COLO 205 0.774 µM | OVCAR-3 0.145 µM | PC-3 0.337 µM | SK-MEL-5 0.0667 µM | TK-10 0.295 µM | CAKI-1 0.904 µM | M14 0.29 µM | Malme-3M 0.234 µM | HOP-62 0.3 µM | HT-29 0.946 µM | 786-0 0.301 µM | NCI-H460 0.0841 µM | LOX IMVI 0.418 µM | SW-620 0.681 µM | SF-268 0.493 µM | KM12 0.0841 µM | IGROV-1 0.138 µM | MOLT-4 0.354 µM | RXF 393 0.0906 µM | U-251 0.678 µM
inactive: UACC-62 1.15 µM | T47D 5.94 µM | SK-MEL-2 1.79 µM | SN12C 2.17 µM | SK-MEL-28 2.17 µM | SNB-75 1.52 µM | DU-145 1.91 µM | NCI-H23 1.39 µM | EKVX 1.31 µM | SK-OV-3 2.01 µM | HOP-92 2.25 µM | OVCAR-5 4.05 µM | MCF7 1.5 µM | NCI-H522 2.79 µM | HCC 2998 1.27 µM | MDA-MB-435 1.36 µM | MDA-N 1.48 µM | OVCAR-4 1.53 µM | NCI-H226 1.37 µM | SNB-19 1.98 µM
0.19 µM: HCT-15
